For assay [1], the target named is porcine pancreatic elastase (PPE) (Sus scrofa, UniProt P00772). Kind of assay: Specificity assay (Example 40), porcine pancreatic elastase. It is filed as biochemical. The method, then: The specificity of the compounds was determined against a variety of serine proteases: human leukocyte elastase, porcine pancreatic elastase and bovine pancreatic α-chymotrypsin and one cysteine protease: human liver cathepsin B. In all cases a 96-well plate format protocol using a calorimetric p-nitroaniline (pNA) substrate specific for each enzyme was used. Each assay included a 1 h enzyme-inhibitor pre-incubation at 30° C. followed by addition of substrate and hydrolysis to ≈30% conversion as measured on a UV Thermomax® microplate reader. Substrate concentrations were kept as low as possible compared to KM to reduce substrate competition. Compound concentrations varied from 300 to 0.06 μM depending on their potency.
porcine pancreatic elastase (PPE), sequence (P00772 27-266): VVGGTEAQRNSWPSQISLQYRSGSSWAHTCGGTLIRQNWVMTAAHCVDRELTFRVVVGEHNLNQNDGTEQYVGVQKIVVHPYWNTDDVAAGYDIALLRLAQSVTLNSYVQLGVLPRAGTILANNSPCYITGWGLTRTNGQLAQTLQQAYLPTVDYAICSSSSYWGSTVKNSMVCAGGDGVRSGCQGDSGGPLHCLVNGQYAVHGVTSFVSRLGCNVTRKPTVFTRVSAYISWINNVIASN
The final conditions for each assay were as follows:
50 mM Tris-HCl pH 8, 0.5 M Na2SO4, 50 mM NaCl, 0.1 mM EDTA, 3% DMSO, 0.01% Tween-20 with;
[100 μM Succ-AAPF-pNA and 250 pM α-chymotrypsin], [133 μM Succ-AAA-pNA and 8 nM porcine elastase], [133 μM Succ-AAV-pNA and 8 nM leukocyte elastase]; or […]
After 60 min pre-incubation at 30° C., 20 μL of substrate solution (50 mM Tris-HCl, pH 8, 0.5 M Na2SO4, 50 mM NaCl, 0.1 mM EDTA, 665 μM Succ-AAA-pNA) were added to each well and the reaction was further incubated at 30° C. for 60 min after which time the absorbance was read on the UV Thermomax® plate reader. […]
The percentage of inhibition was calculated using the formula: […]

The target in assay [2] is T1, full length NS3-NS4A heterodimer protein (His-NS3-NS4AFL) (Hepatitis C virus genotype 1b, UniProt P26663).
T1 construct: The full length mature NS3 and NS4A heterodimer protein (His-NS3-NS4AFL) was expressed; made in house; host or cells: Sf21 insect cells, recombinant baculovirus
T1 sequence (P26663 1027-1657): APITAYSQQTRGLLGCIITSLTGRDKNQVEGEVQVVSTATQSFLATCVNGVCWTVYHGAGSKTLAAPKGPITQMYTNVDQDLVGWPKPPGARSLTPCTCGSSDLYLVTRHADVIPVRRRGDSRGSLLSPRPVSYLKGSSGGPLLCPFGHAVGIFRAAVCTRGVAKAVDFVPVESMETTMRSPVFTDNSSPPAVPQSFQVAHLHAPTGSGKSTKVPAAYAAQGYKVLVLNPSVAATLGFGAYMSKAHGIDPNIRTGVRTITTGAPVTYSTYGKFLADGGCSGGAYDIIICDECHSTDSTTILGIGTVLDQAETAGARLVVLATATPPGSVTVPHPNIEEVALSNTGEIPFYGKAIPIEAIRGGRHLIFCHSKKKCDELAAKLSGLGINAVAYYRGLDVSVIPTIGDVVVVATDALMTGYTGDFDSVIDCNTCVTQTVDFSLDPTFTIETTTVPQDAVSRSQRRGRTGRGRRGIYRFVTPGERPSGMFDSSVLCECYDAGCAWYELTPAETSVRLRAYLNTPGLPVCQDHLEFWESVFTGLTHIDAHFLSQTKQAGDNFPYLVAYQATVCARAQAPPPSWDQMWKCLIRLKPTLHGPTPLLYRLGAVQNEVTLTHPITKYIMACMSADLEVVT
T1 sequence (P26663 1658-1711): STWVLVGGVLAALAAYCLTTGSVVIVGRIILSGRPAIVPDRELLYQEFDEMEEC
The assay can be described thus: Full-length NS3-NS4A heterodimer protein assay (Example 38). In kind it is biochemical, HCV genotype 1b. An excerpt:
Full-length NS3-NS4A Heterodimer Protein Assay
The NS2-NS5B-3′ non coding region was cloned by RT-PCR into the pCR®3 vector (Invitrogen) using RNA extracted from the serum of an HCV genotype 1b infected individual (provided by Dr. Bernard Willems, Hôpital St-Luc, Montréal, Québec, Canada). The NS3-NS4A DNA region was then subcloned by PCR into the pFastBac™ HTa baculovirus expression vector (Gibco/BRL). The vector sequence includes a region encoding a 28-residue N-terminal sequence which contains a hexahistidine tag. The Bac-to-Bac™ baculovirus expression system (Gibco/BRL) was used to produce the recombinant baculovirus. The full length mature NS3 and NS4A heterodimer protein (His-NS3-NS4AFL) was expressed by infecting 10^6 Sf21 cells/mL with the recombinant baculovirus at a multiplicity of infection of 0.1-0.2 at 27° C. The infected culture was harvested 48 to 64 h later by centrifugation at 4° C. The cell pellet was homogenized in 50 mM NaPO4, pH 7.5, 40% glycerol (w/v), 2 mM β-mercaptoethanol, in presence of a cocktail of protease inhibitors. […] Fluorescence of the N-terminal product was monitored on a Perkin-Elmer LS-50B fluorometer equipped with a 96-well plate reader (excitation wavelength: 325 nm; emission wavelength: 423 nm).
The % inhibition was calculated with the following equation: […]

A word on the IC50: it is the midpoint of a concentration-inhibition curve.

For `C=C[C@@H]1C[C@]1(NC(=O)[C@@H]1C[C@@H](Oc2cc(-c3ccccc3)nc3cc(OC)ccc23)CN1C(=O)[C@@H](NC(=O)OC(C)(C)C)C(C)C)C(=O)O` [compound 601], the figures for the IC50 in assay [1] and in assay [2] were above 75000 nM and 30 nM, respectively.

(Values after patent US6534523B1, “Hepatitis C inhibitor tri-peptides” (Boehringer Ingelheim (Canada) Ltd., priority 1998, dated 2003).)
